Publication PMC6917776, “Discovery of a chemical probe for PRDM9” (Nature Communications, 2019)
Read-outs that look alike come from different tables or passages of the source.

Molecular target: T1, NSD2 (Homo sapiens, UniProt O96028)
T1 construct: purchased Structural Genomics Consortium (SGC Toronto) in-house methyltransferase panel
T1 sequence (O96028 1-1365): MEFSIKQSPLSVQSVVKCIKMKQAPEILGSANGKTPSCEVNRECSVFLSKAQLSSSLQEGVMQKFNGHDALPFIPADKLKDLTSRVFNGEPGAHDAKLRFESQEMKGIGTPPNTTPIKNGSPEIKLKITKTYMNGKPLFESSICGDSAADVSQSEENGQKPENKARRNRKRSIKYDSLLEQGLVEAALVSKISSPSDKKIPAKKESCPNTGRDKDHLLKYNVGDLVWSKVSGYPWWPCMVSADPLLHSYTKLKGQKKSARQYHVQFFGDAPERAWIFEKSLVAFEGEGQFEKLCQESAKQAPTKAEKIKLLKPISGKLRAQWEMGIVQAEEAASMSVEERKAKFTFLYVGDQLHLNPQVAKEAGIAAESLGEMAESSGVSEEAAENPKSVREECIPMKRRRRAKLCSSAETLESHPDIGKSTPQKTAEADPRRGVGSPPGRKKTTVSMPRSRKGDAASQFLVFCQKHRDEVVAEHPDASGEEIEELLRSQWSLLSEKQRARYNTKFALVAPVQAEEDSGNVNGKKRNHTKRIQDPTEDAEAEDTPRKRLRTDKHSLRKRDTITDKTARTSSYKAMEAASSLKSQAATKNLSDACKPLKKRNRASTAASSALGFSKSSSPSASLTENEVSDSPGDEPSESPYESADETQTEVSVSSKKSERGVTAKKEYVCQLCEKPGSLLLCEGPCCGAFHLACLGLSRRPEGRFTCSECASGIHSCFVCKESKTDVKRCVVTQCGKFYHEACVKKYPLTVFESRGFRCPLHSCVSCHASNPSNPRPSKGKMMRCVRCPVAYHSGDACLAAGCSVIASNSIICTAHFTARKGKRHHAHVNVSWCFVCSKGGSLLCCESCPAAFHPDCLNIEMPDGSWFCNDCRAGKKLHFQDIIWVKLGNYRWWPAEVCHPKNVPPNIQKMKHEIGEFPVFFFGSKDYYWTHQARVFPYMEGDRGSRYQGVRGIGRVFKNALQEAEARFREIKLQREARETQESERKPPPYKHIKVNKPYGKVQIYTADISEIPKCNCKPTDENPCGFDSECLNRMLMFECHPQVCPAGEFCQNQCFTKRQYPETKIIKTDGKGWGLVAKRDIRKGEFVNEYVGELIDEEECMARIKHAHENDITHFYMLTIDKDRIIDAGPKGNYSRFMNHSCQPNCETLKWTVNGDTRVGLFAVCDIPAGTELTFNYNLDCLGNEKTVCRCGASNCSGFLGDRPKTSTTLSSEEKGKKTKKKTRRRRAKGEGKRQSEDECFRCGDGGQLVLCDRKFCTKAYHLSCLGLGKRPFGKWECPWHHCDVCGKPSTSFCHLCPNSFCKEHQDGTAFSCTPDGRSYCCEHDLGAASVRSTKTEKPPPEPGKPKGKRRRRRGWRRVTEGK
Test: Methyltransferase selectivity assay (filter-based, nucleosome substrate)
Type: biochemical
Experimental: Selectivity against methyltransferases were determined as described previously. Details of the assays are described in the supplementary methods.
Methyltransferase selectivity assay1
The effect of chemical probes and negative controls on the methyltransferase activities of protein, DNA and RNA methyltransferases was tested by radiometric assays using 3H-SAM. […]
The CPM in the absence of compound or enzyme was defined as 100% activity and background (0%), respectively, for each dataset. […]
For proteins which were tested with nucleosome as substrate such as DOT1L, NSD1, NSD2, NSD3, and ASH1L, or unbiotinylated Poly(2′-deoxyinosinic-2′-deoxycytidylic acid) (Cat# 81349-500UG, Sigma Aldrich) such as DNMT3A/3L, and DNMT3B/3L, a filter-based assay was used. In this assay, a trichloroacetic acid (TCA) protein precipitation protocol was employed. A 10 µL reaction mixture was incubated at 23°C for 1 h, followed by addition of 50 µL of 10% TCA. The mixture was transferred to filter plates (Millipore, Billerica, MA, USA) that were centrifuged at 2000 rpm (Allegra X-15R; Beckman Coulter, Brea, CA, USA) for 2 min. Samples were washed twice with 10% TCA and once with ethanol (180 µL), and centrifuged. After drying, 100 µL MicroScint-O (Perkin Elmer) was added to each well and the plates were centrifuged to remove the liquid. A 70 µL volume of MicroScint-O was added and the CPM was measured with a TopCount plate reader.

[1] = 10µM compound, Exp1, Exp2, 10 µM

Compound	activity at 1 µM (1µM compound, Exp1, Exp2)	Activity % (1µM compound, Exp1, Exp2, 1 µM)	activity at 10 µM (10µM compound, Exp1, Exp2)	Activity % [1]	activity at 1 µM (1µM compound, Exp1, Exp2, read-out: Activity %)	activity at 10 µM (10µM compound, Exp1, Exp2, read-out: Activity %)
COc1cc(OC)cc(-c2noc(N3CCN(C)C4(CCN(c5ccccc5)CC4)C3)n2)c1 [MRK-740 -NC]	98%	100%	98%	88%		
COc1cc(OC)cc(-c2noc(N3CCN(C)C4(CCN(c5ccnc(C)c5)CC4)C3)n2)c1 [MRK-740]		97%		95%	91%	98%
